Data from patent US20250215397A1, “TWO-DIMENSIONAL CULTURE METHOD HAVING CLEAR CHEMICAL COMPOSITION FOR CULTURING THREE-DIMENSIONAL INTESTINAL ORGANOID-DERIVED INTESTINAL STEM CELL AGGREGATE” (KOREA RESEARCH INSTITUTE OF BIOSCIENCE AND BIOTECHNOLOGY, priority 2022, published 2025).
Where a name gives a salt, the structure may show the parent alone.

Key:
Type in all cases: cell-based, human
[1] = test system: two-dimensional intestinal stem cell population; assay: Subculture of two-dimensional intestinal stem cells, engraftment / cell number; conditions: for subculture efficiency: added during subculture; for subculture efficiency / cell engraftment during subculture: FIG. 13; for cell engraftment during subculture: treatment during subculture; for need for long-term subculturing: factor removed from culture medium, subculture, FIG. 12
Method: (§1) The three-dimensional intestinal organoids were isolated from a Matrigel dome and the remaining three-dimensional intestinal organoids were removed as much as possible by pipetting. The separated organoids were placed in 1 ml of 0.25% trypsin-EDTA (TE, Invitrogen) and incubated at 37° C. a water bath for about 5 minutes. Then, pipetting was performed less than five times so that the organoids were allowed to be isolated into single cells and small clumps, and a basal medium was added so that the total volume thereof was 10 ml. The cells fed into a centrifuge were placed on culture dishes coated with feeder cells or 1% of Matrigel (Corning). Thereafter, 200 ng/ml of R-spondin 1 (R&D Systems), 100 ng/ml of EGF (R&D Systems), and 2.5 μM of Postaglandin E2 (Sigma-aldrich) were used as main components, cultured in an intestinal stem cell culture medium (2 mM of L-glutamine, 1% of Penicillin-Streptomycin, and 15 mM of HEPES buffer in Advanced DMEM F12) comprising, as an auxiliary component, one or more selected from the group consisting of 1×B27 (Invitrogen), 80 ng/ml of Noggin (R&D Systems), 10 nM of [Leu15]-Gastrin I (Sigma-aldrich), 100 ng/ml of human recombinant WNT3A (R&D Systems), 500 nM of A-83-01 (Tocris), 10 μM of SB202190 (Sigma-aldrich), 1 mM of N-acetylcysteine (Sigma-aldrich), and 10 mM of nicotinamide (Sigma-aldrich), and subcultured every 7 to 10 days. During the first 2 days of subculture, 1 μM of Jagged-1 (Anaspec) and/or 2.5 μM of Y-27632 (Tocirs) were added to the intestinal stem cell culture medium.
(§2) The two-dimensional intestinal stem cell population was plated on a culture dish coated with 1% of Matrigel and then cultured for 2 to 7 days. Thereafter, the culture medium was removed, and washing was performed 1 to 2 times with PBS (Sigma-aldrich), and TE (Invitrogen) was added thereto to detach the cells. After centrifugation, a medium was added to isolate the cells into single cells, and then the number of cells was measured using CountessIII cell counter (Thermo Scientific. Inc.).

[2] = test system: two-dimensional intestinal stem cell population; assay: Two-dimensional culture of intestinal stem cell population with removal of medium factors or inhibitor treatment; conditions: for growth of the two-dimensional intestinal stem cell population: treatment with a WNT inhibitor, morphology, FIG. 8; for role of essential culture medium factor (stemness, proliferation, death): presence or absence of each factor, FIGS. 7-10
Method: as §1
To measure viability of a two-dimensional intestinal stem cell population cultured in a culture dish coated with 1% of Matrigel, a kit (LIVE/DEAD Viability/Cytotoxicity Kit, Invitrogen) capable of distinguishing and staining surviving cells and dead cells was used. The surviving cells were stained with calcein-AM, and the dead cells were stained with ethidium homodimer-1. The stained cells were observed through a fluorescence microscope (Olympus).
as §2
The intestinal stem cell population was fixed with 4% of paraformaldehyde (PFA) and stained with 0.02% of crystal violet solution (Sigma-aldrich) at room temperature for 10 minutes. Thereafter, images were acquired after washing three times with sterile water. A colony size of the intestinal stem cell population was analyzed using Image J software (National Institute of Health).

[3] = test system: two-dimensional intestinal stem cell population; assay: Differentiation into 2.5-dimensional intestinal epithelial cells by air-liquid interface culture, medium factor screening; conditions: minimal medium composition; FIG. 24
Method: The intestinal stem cells grown to a density of 70 to 80% were washed 1-2 times with PBS, and then treated with TE in an incubator at 37° C. for 5 to 7 minutes. The intestinal stem cells isolated into single cells were collected and then diluted using the hIO medium. The cells were gathered by centrifugation, supernatant was removed, the intestinal stem cell culture medium was added thereto and sufficiently mixed, and then the number of cells was measured using Countess III cell counter (Thermo Scientific. Inc.). 2.5-3.5×10^5 cells were placed in an insert of 12-transwell plate (Corning) coated with 1% of Matrigel, and cultured in an incubator. After the cell density reached 100%, the culture medium of an upper layer was completely removed, and the culture medium of a lower layer was replaced with a differentiation medium (2 mM of L-glutamine, 1% of Penicillin-Streptomycin, and 15 mM of a HEPES buffer in Advanced DMEM F12) comprising 200 ng/ml of R-spondin 1 (R&D Systems), 100 ng/ml of EGF (R&D Systems), 2.5 µM of Prostaglandin E2 (Sigma-aldrich), 10 μM of SB202190 (Sigma-aldrich), and 10 mM of nicotinamide (Sigma-aldrich). Thereafter, once every 2 days, a surface of the upper layer was washed with the PBS or hIO medium, and the lower layer was replaced with a new differentiation medium and cultured for 8 to 12 days.

C[C@@H](N)[C@H]1CC[C@H](C(=O)Nc2ccncc2)CC1 [Y-27632, R-(+)-trans-4-(1-aminoethyl)-N-(4-pyridyl) cyclohexanecarboxamidedihydrochloridemonohydrate]
subculture efficiency [1]: subculture efficiency is increased
cell engraftment during subculture [1]: cell engraftment increases

Oc1nc(-c2ccc(C(F)(F)F)cc2)nc2c1CSCC2 [XAV939]
growth of the two-dimensional intestinal stem cell population [2]: growth is inhibited

O=C(NOC[C@H](O)CO)c1ccc(F)c(F)c1Nc1ccc(I)cc1F [PD0325901]
cell proliferation of the two-dimensional intestinal stem cell population ([2]; EGF inhibitor treatment, morphology and live/dead assay, FIG. 9): cell proliferation is inhibited

Cc1cc(-c2ccc(CC(=O)Nc3ccc(-c4cccnc4)cc3)cc2)ccn1 [WNT-C59]
growth of the two-dimensional intestinal stem cell population [2]: growth is inhibited

EGF: receptor tyrosine kinase ligand, epidermal growth factor (NSDSECPLSHDGYCLHDGVCMYIEALDKYACNCVVGYIGERCQYRDLKWWELR; Epidermal growth factor; UniProt P01133 971-1023, looked up)
effect on differentiation into intestinal epithelial cells [3]: excellent effect on differentiation into intestinal epithelial cells
role of essential culture medium factor (stemness, proliferation, death) [2]: prevent death of intestinal stem cell population and modulate proliferation

Jagged-1: Notch activator
subculture efficiency [1]: subculture efficiency is increased
cell engraftment during subculture [1]: cell engraftment increases

CCCCC[C@H](O)/C=C/[C@H]1[C@H](O)CC(=O)[C@@H]1C/C=C\CCCC(=O)O [PGE2, prostaglandin E2]
effect on differentiation into intestinal epithelial cells [3]: excellent effect on differentiation into intestinal epithelial cells
role of essential culture medium factor (stemness, proliferation, death) [2]: modulate the proliferation of the intestinal stem cell population

CCCC(CCC)C(=O)O [valproic acid]
subculture efficiency [1]: subculture efficiency is increased
cell engraftment during subculture [1]: cell engraftment increases

Oc1ccc(-c2nc(-c3ccncc3)c(-c3ccc(F)cc3)[nH]2)cc1 [SB202190]
effect on differentiation into intestinal epithelial cells [3]: excellent effect on differentiation into intestinal epithelial cells
need for long-term subculturing [1]: required to more efficiently perform long-term culturing

CC(=O)N[C@@H](CS)C(=O)O [N-acetylcysteine]
need for long-term subculturing [1]: required to more efficiently perform long-term culturing

Cc1cccc(-c2nn(C(=S)Nc3ccccc3)cc2-c2ccnc3ccccc23)n1 [A-83-01]
need for long-term subculturing [1]: required to more efficiently perform long-term culturing

NC(=O)c1cccnc1 [nicotinamide]
effect on differentiation into intestinal epithelial cells [3]: excellent effect on differentiation into intestinal epithelial cells
need for long-term subculturing [1]: required to more efficiently perform long-term culturing
